Test [1] concerns the target T1, menin/MLL (terbium chelate-labeled menin, FITC-MBM1 peptide) (Homo sapiens, UniProt O00255, T541A).
T1 construct: Menin (a.a 1-610-6xhis tag)
T1 sequence (O00255 with tags, fused parts or gaps T541A): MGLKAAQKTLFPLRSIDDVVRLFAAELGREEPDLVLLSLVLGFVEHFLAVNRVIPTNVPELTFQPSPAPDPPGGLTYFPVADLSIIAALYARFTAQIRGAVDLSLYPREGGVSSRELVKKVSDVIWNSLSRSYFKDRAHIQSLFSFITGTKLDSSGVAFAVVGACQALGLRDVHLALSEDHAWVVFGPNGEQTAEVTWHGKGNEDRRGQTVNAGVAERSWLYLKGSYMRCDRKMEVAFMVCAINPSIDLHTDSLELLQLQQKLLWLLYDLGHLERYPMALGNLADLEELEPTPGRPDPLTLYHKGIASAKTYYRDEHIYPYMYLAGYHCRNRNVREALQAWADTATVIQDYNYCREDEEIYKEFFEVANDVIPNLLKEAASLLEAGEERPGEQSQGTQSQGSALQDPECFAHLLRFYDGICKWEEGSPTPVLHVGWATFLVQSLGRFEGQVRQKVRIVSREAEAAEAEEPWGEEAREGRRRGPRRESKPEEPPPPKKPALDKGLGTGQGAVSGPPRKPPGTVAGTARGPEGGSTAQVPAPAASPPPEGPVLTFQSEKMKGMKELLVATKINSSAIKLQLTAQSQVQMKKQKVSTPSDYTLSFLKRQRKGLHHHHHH
As to the kind of experiment: Menin/MLL homogenous time-resolved fluorescence (HTRF) assay. The test is classed as binding. Conditions: 30 min incubation. The method, then:
1) Menin/MLL Homogenous Time-Resolved Fluorescence (HTRF) Assay
To an untreated, white 384-well microtiter plate was added 40 nL 200× test compound in DMSO and 4 μL 2× terbium chelate-labeled menin (vide infra for preparation) in assay buffer (40 mM Tris.HCl, pH 7.5, 50 mM NaCl, 1 mM DTT (dithiothreitol) and 0.05% Pluronic F-127). After incubation of test compound and terbium chelate-labeled menin for 30 min at ambient temperature, 4 μL 2× FITC-MBM1 peptide (FITC-β-alanine-SARWRFPARPGT-NH2 (SEQ ID NO: 3)) (“FITC” means fluorescein isothiocyanate) in assay buffer was added, the microtiter plate centrifuged at 1000 rpm for 1 min and the assay mixtures incubated for 15 min at ambient temperature. The relative amount of menin FITC-MBM1 complex present in an assay mixture is determined by measuring the homogenous time-resolved fluorescence (HTRF) of the terbium/FITC donor/acceptor fluorophore pair using an EnVision microplate reader (ex. 337 nm/terbium em. 490 nm/FITC em. 520 nm) at ambient temperature. The degree of fluorescence resonance energy transfer (the HTRF value) is expressed as the ratio of the fluorescence emission intensities of the FITC and terbium fluorophores (F^em 520 nm/F^em 490 nm). The final concentrations of reagents in the binding assay are 200 pM terbium chelate-labeled menin, 75 nM FITC-MBM1 peptide and 0.5% DMSO in assay buffer. Dose-response titrations of test compounds are conducted using an 11 point, four-fold serial dilution scheme, starting typically at 10 μM.
Compound potencies were determined by first calculating % inhibition at each compound concentration according to equation 1:
% inhibition=((HC−LC)−(HTRF^compound−LC))/(HC−LC))*100 (Eqn 1)
Where LC and HC are the HTRF values of the assay in the presence or absence of a saturating concentration of a compound that competes with FITC-MBM1 for binding to menin, and HTRF^compound is the measured HTRF value in the presence of the test compound. HC and LC HTRF values represent an average of at least 10 replicates per plate.
% inhibition=Bottom+(Top−Bottom)/(1+10^((logIC50−log[cmpd])*h)) (Eqn 2)
Where Bottom and Top are the lower and upper asymptotes of the dose-response curve, respectively, IC50 is the concentration of compound that yields 50% inhibition of signal and h is the Hill coefficient. IC50 values below 0.1 nM in the HTRF assay were reported as 0.1 nM in the Table below (detection limit).
Preparation of Terbium cryptate labeling of Menin: Menin (a.a 1-610-6xhis tag (“6xhis tag” disclosed as SEQ ID NO: 2), 2.3 mg/mL in 20 mM Hepes (2-[4-(2-Hydroxyethyl)-1-piperazinyl]ethane sulfonic acid), 80 mM NaCl, 5 mM DTT (Dithiothreitol), pH 7.5) was labeled with terbium cryptate as follows. 200 μg of Menin was buffer exchanged into 1× Hepes buffer. 6.67 μM Menin was incubated with 8-fold molar excess NHS (N-hydroxysuccinimide)-terbium cryptate for 40 minutes at room temperature. Half of the labeled protein was purified away from free label by running the reaction over a NAP5 column with elution buffer (0.1 M Hepes, pH 7+0.1% BSA (bovine serum albumin)). The other half was eluted with 0.1 M phosphate buffered saline (PBS), pH7. 400 μl of eluent was collected for each, aliquoted and frozen at −80° C. The final concentration of terbium-labeled Menin protein was 115 μg/mL in Hepes buffer and 85 μg/mL in PBS buffer, respectively.

Another test deals with MOLM14 cells. Briefly: Proliferation assay, spheroid-like growth, MOLM14 (MLL-AF9 rearranged). The test is classed as cell-based, human. Conditions: Homo sapiens, MOLM-14, 192 h, 8 days, confluence as measure of spheroid size, read-out: spheroid assay_OneTime MOLM14 IC50. The method, then:
The anti-proliferative effect of menin/MLL protein/protein interaction inhibitor test compounds was assessed in human leukemia cell lines. The cell line MOLM14 harbors a MLL translocation and expresses the MLL fusion proteins MLL-AF9, respectively, as well as the wildtype protein from the second allele. […] KO-52 was used as a control cell line containing two MLL (KMT2A) wildtype alleles in order to exclude compounds that display general cytotoxic effects.
MOLM14 cells were cultured in RPMI-1640 (Sigma Aldrich) supplemented with 10% heat-inactivated fetal bovine serum (HyClone), 2 mM L-glutamine (Sigma Aldrich) and 50 μg/ml gentamycin (Gibco). KO-52 cell lines were propagated in alpha-MEM (Sigma Aldrich) supplemented with 20% heat-inactivated fetal bovine serum (HyClone), 2 mM L-glutamine (Sigma Aldrich) and 50 μg/ml gentamycin (Gibco).
In order to assess the anti-proliferative effects, 200 MOLM14 cells, or 300 KO-52 cells were seeded in 200 μl media per well in 96-well round bottom, ultra-low attachment plates (Costar, catalogue number 7007). Cell seeding numbers were chosen based on growth curves to ensure linear growth throughout the experiment. Test compounds were added at different concentrations and the DMSO content was normalized to 0.3%. Cells were incubated for 8 days at 37° C. and 5% CO2. Spheroid like growth was measured in real-time by live-cell imaging (IncuCyteZOOM, Essenbio, 4× objective) acquiring images at day 8. Confluence (%) as a measure of spheroid size was determined using an integrated analysis tool.
In order to determine the effect of the test compounds over time, the confluence in each well as a measure of spheroid size, was calculated. Confluence of the highest dose of a reference compound was used as baseline for the LC (Low control) and the confluence of DMSO treated cells was used as 0% cytotoxicity (High Control, HC).
Absolute IC50 values were calculated as percent change in confluence as follows:
LC=Low Control: cells treated with e.g. 1 μM of the cytotoxic agent staurosporin, or e.g. cells treated with a high concentration of an alternative reference compound
GraphPad Prism (version 7.00) was used to calculate the IC50. Dose-response equation was used for the plot of % Effect vs Log 10 compound concentration with a variable slope and fixing the maximum to 100% and the minimum to 0%.

In general, IC50 refers to the concentration that inhibits the measured activity by half.

For `CC(C)[C@@H]([C@H]1C[C@@H](NC2CC2)C1)N1CC2(CCN(c3ncnnc3Oc3ccc(F)cc3-c3nnccc3C3CC3)C2)C1` (single isomer, unassigned) [Compound 272], the IC50 was determined as 0.1 nM in test [1] and 21 nM with MOLM14 cells.
Regarding `CC(=O)N1CCN([C@H]2C[C@@H]([C@H](C(C)C)N3CC4(CCN(c5ncnnc5Oc5ccc(F)cc5-c5nnccc5C5CC5)C4)C3)C2)CC1` (single isomer, unassigned) [Compound 277], the IC50 in test [1] stood at 0.9 nM; in the test on MOLM14 cells, 250 nM.
Turning to `CC(C)[C@@H]([C@H]1C[C@@H](N2C[C@H]3COC[C@H]3C2)C1)N1CC2(CCN(c3ncnnc3Oc3ccc(F)cc3-c3cnncc3C3CC3)C2)C1` (single isomer, unassigned) [Compound 278], the values for the half-inhibitory concentration (IC50) (in test [1]; in the test with MOLM14 cells) were 0.1 nM and 2 nM, respectively.
Take `CC(C)[C@H]([C@H]1C[C@@H](N2CCC3(CCO3)CC2)C1)N1CC2(CCN(c3ncnnc3Oc3ccc(F)cc3-c3cnncc3C3CC3)C2)C1` (single isomer, unassigned) [Compound 280a]: the IC50 in test [1] was 5 nM; in the test on MOLM14 cells it was more than 940 nM.
For `CC(C)[C@@H]([C@H]1C[C@@H](N2CCC3(CCO3)CC2)C1)N1CC2(CCN(c3ncnnc3Oc3ccc(F)cc3-c3cnncc3C3CC3)C2)C1` (single isomer, unassigned) [Compound 281a], the 50% inhibitory concentration (IC50) turned out to be 0.17 nM in test [1] and 10 nM with MOLM14 cells.
For the compound `CC(C)[C@@H]([C@H]1C[C@H](N2CCC3(CCO3)CC2)C1)N1CC2(CCN(c3ncnnc3Oc3ccc(F)cc3-c3cnncc3C3CC3)C2)C1` (single isomer, unassigned) [Compound 281b], the half-maximal inhibitory concentration (IC50) in test [1] amounted to 0.31 nM; with MOLM14 cells, 83 nM.
Regarding `CO[C@H]1[C@@H]2CN([C@H]3C[C@@H]([C@H](C(C)C)N4CC5(CCN(c6ncnnc6Oc6ccc(F)cc6-c6cnncc6C6CC6)C5)C4)C3)C[C@@H]21` (single isomer, unassigned) [Compound 282a], the values for the IC50 (in test [1]; in the test on MOLM14 cells) were 2.4 nM and 280 nM, respectively.
For `CC(C)[C@@H]([C@H]1C[C@@H](NC(=O)C2CC2)C1)N1CC2(CCN(c3ncnnc3Oc3ccc(F)cc3-c3n[nH]c(=O)cc3C3CC3)C2)C1` (single isomer, unassigned) [Compound 310] the same measures were 24.2 nM and more than 940 nM.
As for `CC(C)[C@H]([C@H]1C[C@@H](N2CC3(CNC(=O)O3)C2)C1)N1CC2(CCN(c3ncnnc3Oc3ccc(F)cc3-c3cncnc3C3CC3)C2)C1` (single isomer, unassigned) [Compound 317], the IC50 is 0.3 nM in test [1] and 60 nM with MOLM14 cells.
For `CC(C)[C@@H]([C@H]1C[C@]2(COC(=O)N2)C1)N1CC2(CCN(c3ncnnc3Oc3ccc(F)cc3-c3cnncc3C3CC3)C2)C1` (single isomer, unassigned) [Compound 323] the same measures were 0.2 nM and 53 nM.
For `CC(C)[C@H]([C@H]1C[C@@H](N2CCC3(CNC(=O)O3)C2)C1)N1CC2(CCN(c3ncnnc3Oc3ccc(F)cc3-c3nnccc3C3CC3)C2)C1` (single isomer, unassigned) [Compound 328] the same measures were 0.1 nM and 33 nM.
For `CC(C)[C@H]([C@H]1C[C@@H](N2CCC3(CN(C)C(=O)O3)C2)C1)N1CC2(CCN(c3ncnnc3Oc3ccc(F)cc3-c3cncnc3C3CC3)C2)C1` (single isomer, unassigned) [Compound 329] the same measures were 0.3 nM and 32 nM.
`CO[C@H]1CCN([C@H]2C[C@H](C(C(C)C)N3CC4(CCN(c5ncnnc5Oc5ccc(F)cc5-c5nnccc5C5CC5)C4)C3)C2)C1` (single isomer, unassigned) [Compound 332]: the IC50 in test [1] worked out at 0.7 nM; in the test with MOLM14 cells, 37 nM.
For `CNC(=O)CCN(C)[C@H]1C[C@@H]([C@@H](C(C)C)N2CC3(CCN(c4ncnnc4Oc4ccc(F)cc4-c4cncnc4C4CC4)C3)C2)C1` (single isomer, unassigned) [Compound 350] the same measures were 0.1 nM and 10 nM.
For `CC(=O)N1CC2(C1)CN([C@H]1C[C@H]([C@H](C(C)C)N3CC4(CCN(c5ncnnc5Oc5ccc(F)cc5-c5cnc(C)cc5C5CC5)C4)C3)C1)C2` (single isomer, unassigned) [Compound 372] the same measures were 0.2 nM and 18 nM.
For `CC(=O)N1CC2(C1)CN([C@H]1C[C@H]([C@H](C(C)C)N3CC4(CCN(c5ncnnc5Oc5ccc(F)cc5-c5ncc(C)cc5C5CC5)C4)C3)C1)C2` (single isomer, unassigned) [Compound 374] the same measures were 0.19 nM and 140 nM.
For the compound `CO[C@H]1CCN(C2CC(C(C(C)C)N3CC4(CCN(c5ncnnc5Oc5ccc(F)cc5-c5nnc(C)cc5C5CC5)C4)C3)C2)C1` (single isomer, unassigned) [Compound 399], the concentration for half-maximal inhibition (IC50) amounted to 0.92 nM in test [1] and 200 nM with MOLM14 cells.

The values above are taken from patent US20240417405A1, “Substituted Spiro Derivatives” (Janssen Pharmaceutica NV, priority 2021, published 2024).
